From PubChem BioAssay (NCI) come the findings set out here.

Among the test systems are 786-0 renal; CCRF-CEM leukemia; COLO 205 colon; LOX IMVI melanoma; MDA-MB-435; NCI/ADR-RES ovarian; OVCAR-5 ovarian; SF-295 CNS; SK-MEL-28 melanoma; SN12C renal; SNB-19 CNS.
What all share (assay): NCI anticancer screen, dose series, 48 h

SMILES strings stand for the structures.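 Five concentrations, 48 hours, 96-well plates. At the TGI there is no net growth.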 Bounds are passed on as bounds.

Take `Cc1nnc(N)nc1/C=C/c1c(O)ccc2ccccc12`: the TGI with 786-0 renal was > 100 µM; in the assay on CCRF-CEM leukemia it was > 100 µM; in the assay on COLO 205 colon, > 100 µM; in the assay with LOX IMVI melanoma it was > 100 µM; in the assay with MDA-MB-435, 79.5 µM; with NCI/ADR-RES ovarian, > 100 µM. For the same compound, the TGI in the assay on OVCAR-5 ovarian was 78.7 µM; in the assay with SF-295 CNS, 56.9 µM; in the assay on SK-MEL-28 melanoma, > 100 µM; in the assay on SN12C renal, > 100 µM; in the assay with SNB-19 CNS, > 100 µM.

Turning to `O=C(CNC(c1ccccc1)(c1ccccc1)c1ccccc1)NC1CCCCC1NC(=O)CNC(c1ccccc1)(c1ccccc1)c1ccccc1` (stereo not drawn), the TGI in the assay on 786-0 renal, in the assay with CCRF-CEM leukemia, in the assay with COLO 205 colon, in the assay with LOX IMVI melanoma, in the assay on MDA-MB-435 and in the assay with NCI/ADR-RES ovarian was > 100 µM in each case. Moreover, the TGI with OVCAR-5 ovarian, in the assay with SF-295 CNS, in the assay on SK-MEL-28 melanoma, in the assay on SN12C renal and in the assay with SNB-19 CNS was > 100 µM throughout.

`CCN(CC)Cc1c(/C=C\c2cc(OC)c(OC)c(OC)c2)ccc(OC)c1O`: the TGI in the assay with 786-0 renal is 78.9 µM; in the assay on CCRF-CEM leukemia, > 100 µM; in the assay on COLO 205 colon it was 7.36 µM; in the assay on LOX IMVI melanoma, > 100 µM; in the assay with MDA-MB-435, 0.826 µM; with NCI/ADR-RES ovarian, 6.29 µM. Also, the TGI in the assay on OVCAR-5 ovarian is > 100 µM; with SF-295 CNS it was 32.1 µM; in the assay on SK-MEL-28 melanoma it was > 100 µM; in the assay with SN12C renal, > 71.7 µM; in the assay with SNB-19 CNS, > 100 µM.
